Data as given in ChEMBL document CHEMBL3525955, “Glucuronidation of the red clover isoflavone irilone by liver microsomes from different species and human UDP-glucuronosyltransferases” (Drug Metab Dispos, 2011).
Values belong to the compound of their own block, whether it stands above or below them.

Columns and labels:
Type in all cases: ADME
[1] = target: T1, UDP-glucuronosyltransferase 1A9 (Homo sapiens, UniProt O60656); assay: Activity of human recombinant UGT1A9 at 100 uM; details: recombinant enzyme
T1 sequence (O60656 whole entry): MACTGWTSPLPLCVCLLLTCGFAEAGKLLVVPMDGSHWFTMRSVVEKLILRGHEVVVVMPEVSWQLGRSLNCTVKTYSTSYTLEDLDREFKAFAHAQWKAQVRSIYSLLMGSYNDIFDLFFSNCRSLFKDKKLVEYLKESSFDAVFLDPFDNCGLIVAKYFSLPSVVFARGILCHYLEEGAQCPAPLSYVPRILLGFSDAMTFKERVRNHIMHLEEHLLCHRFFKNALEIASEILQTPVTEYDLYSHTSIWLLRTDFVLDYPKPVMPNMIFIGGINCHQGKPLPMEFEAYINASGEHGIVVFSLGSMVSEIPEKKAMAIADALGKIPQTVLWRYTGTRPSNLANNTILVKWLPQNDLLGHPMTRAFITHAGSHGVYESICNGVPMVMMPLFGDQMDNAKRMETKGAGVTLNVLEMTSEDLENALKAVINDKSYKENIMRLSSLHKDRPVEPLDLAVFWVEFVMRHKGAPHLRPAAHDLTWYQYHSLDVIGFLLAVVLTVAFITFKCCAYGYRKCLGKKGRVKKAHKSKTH

[2] = target: T2, UDP-glucuronosyltransferase 1A10 (Homo sapiens, UniProt Q9HAW8); assay: Activity of human recombinant UGT1A10 at 100 uM; details: recombinant enzyme
T2 sequence (Q9HAW8 whole entry): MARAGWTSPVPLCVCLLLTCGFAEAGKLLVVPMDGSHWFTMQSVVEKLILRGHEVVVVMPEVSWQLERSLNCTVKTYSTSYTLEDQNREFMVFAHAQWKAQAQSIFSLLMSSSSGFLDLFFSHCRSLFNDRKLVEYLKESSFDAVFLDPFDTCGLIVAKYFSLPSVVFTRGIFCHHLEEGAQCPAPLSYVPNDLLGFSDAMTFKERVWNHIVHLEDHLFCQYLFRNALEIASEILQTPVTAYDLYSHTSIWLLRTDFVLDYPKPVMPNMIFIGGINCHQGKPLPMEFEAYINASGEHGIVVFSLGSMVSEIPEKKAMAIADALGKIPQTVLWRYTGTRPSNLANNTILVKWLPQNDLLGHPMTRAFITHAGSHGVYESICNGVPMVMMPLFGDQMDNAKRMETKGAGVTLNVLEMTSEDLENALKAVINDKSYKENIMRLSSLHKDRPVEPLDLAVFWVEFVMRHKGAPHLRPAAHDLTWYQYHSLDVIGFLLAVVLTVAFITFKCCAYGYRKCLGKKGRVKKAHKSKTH

[3] = target: T1, UDP-glucuronosyltransferase 1A9; assay: Drug level assessed as human recombinant UGT1A9-mediated glucuronidation formation treated with irilone incubated for 5 mins prior to UDPGA addition measured after 90 mins by HPLC-DAD analysis; details: recombinant enzyme, 1.5 h
[4] = target: T3, UDP-glucuronosyltransferase 1A8 (Homo sapiens, UniProt Q9HAW9); assay: Drug level assessed as human recombinant UGT1A8-mediated glucuronidation treated with 25 uM irilone incubated for 5 mins prior to UDPGA addition measured after 90 mins by HPLC-DAD analysis; details: recombinant enzyme, 1.5 h
T3 sequence (Q9HAW9 whole entry): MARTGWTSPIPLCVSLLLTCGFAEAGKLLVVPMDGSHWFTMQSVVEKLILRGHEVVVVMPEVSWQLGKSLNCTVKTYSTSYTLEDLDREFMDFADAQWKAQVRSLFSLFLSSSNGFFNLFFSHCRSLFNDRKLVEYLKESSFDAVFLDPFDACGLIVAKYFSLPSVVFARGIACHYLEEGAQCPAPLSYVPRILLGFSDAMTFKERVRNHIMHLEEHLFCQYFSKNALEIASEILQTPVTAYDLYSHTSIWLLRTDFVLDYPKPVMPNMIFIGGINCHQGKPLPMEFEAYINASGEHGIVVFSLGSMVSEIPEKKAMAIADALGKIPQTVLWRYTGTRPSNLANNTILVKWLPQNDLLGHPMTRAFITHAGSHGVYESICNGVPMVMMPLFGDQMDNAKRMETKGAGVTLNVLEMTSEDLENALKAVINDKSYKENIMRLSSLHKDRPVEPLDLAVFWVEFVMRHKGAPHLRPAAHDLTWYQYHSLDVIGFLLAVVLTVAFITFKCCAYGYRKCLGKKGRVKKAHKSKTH

[5] = target: T4, UDP-glucuronosyltransferase 1A1 (Homo sapiens, UniProt P22309); assay: Drug level assessed as human recombinant UGT1A1-mediated glucuronidation treated with 25 uM irilone incubated for 5 mins prior to UDPGA addition measured after 90 mins by HPLC-DAD analysis; details: recombinant enzyme, 1.5 h
T4 sequence (P22309 whole entry): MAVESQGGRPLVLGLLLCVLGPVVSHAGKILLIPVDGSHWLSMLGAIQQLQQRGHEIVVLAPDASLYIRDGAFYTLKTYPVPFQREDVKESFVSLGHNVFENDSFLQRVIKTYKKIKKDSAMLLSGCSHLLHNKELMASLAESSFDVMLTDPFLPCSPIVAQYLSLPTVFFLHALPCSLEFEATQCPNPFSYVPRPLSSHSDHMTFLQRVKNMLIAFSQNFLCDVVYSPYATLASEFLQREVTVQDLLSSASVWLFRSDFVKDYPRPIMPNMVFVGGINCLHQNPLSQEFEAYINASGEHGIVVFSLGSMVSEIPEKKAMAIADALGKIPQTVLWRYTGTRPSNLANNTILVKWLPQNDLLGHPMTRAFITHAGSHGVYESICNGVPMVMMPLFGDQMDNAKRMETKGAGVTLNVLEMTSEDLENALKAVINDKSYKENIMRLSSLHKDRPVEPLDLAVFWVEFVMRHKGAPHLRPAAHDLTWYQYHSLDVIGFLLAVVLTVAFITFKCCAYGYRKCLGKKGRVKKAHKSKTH

[6] = target: T5, UDP-glucuronosyltransferase 1A7 (Homo sapiens, UniProt Q9HAW7); assay: Drug level assessed as human recombinant UGT1A7-mediated glucuronidation treated with 25 uM irilone incubated for 5 mins prior to UDPGA addition measured after 90 mins by HPLC-DAD analysis; details: recombinant enzyme, 1.5 h
T5 sequence (Q9HAW7 whole entry): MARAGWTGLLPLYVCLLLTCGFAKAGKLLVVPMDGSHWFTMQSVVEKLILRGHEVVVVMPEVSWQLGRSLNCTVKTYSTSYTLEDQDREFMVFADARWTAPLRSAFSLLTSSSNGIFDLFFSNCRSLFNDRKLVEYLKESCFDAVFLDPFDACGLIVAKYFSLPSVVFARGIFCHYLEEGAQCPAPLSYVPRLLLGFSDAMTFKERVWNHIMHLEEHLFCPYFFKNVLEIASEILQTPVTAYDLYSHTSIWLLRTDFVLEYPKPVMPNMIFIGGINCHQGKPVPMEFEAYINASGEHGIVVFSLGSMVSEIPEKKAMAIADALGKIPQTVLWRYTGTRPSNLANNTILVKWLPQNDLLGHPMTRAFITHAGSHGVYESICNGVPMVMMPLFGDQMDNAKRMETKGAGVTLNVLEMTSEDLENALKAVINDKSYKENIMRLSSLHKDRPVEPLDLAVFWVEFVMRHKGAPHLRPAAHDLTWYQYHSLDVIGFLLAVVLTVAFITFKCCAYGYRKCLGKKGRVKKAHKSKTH

[7] = target: T1, UDP-glucuronosyltransferase 1A9; assay: Activity of human recombinant UGT1A9 assessed as […]-O-4'-monoglucuronide formation incubated for 5 mins prior to UDPGA addition measured after 90 mins by HPLC-DAD analysis; details: recombinant enzyme, 1.5 h
[8] = target: T2, UDP-glucuronosyltransferase 1A10; assay: Activity of human recombinant UGT1A10 assessed as […]-O-4'-monoglucuronide formation incubated for 5 mins prior to UDPGA addition measured after 90 mins by HPLC-DAD analysis; details: recombinant enzyme, 1.5 h

Activity [1]: 0.5 nmol/mg/min
Activity [2]: 0.5 nmol/mg/min
SMILES: O=c1c(-c2ccc(O)cc2)coc2cc(O)cc(O)c12 [GENISTEIN]

Activity [1]: 0.5 nmol/mg/min
Activity [2]: 0.5 nmol/mg/min
SMILES: O=c1c(-c2ccc(O)cc2)coc2cc(O)ccc12 [DAIDZEIN]

Drug metabolism [3]: metabolite_detected
Drug metabolism [4]: metabolite_detected
Drug metabolism [5]: metabolite_detected
Drug metabolism [6]: metabolite_detected
SMILES: O=C(O)[C@H]1O[C@@H](Oc2c3c(cc4occ(-c5ccc(O)cc5)c(=O)c24)OCO3)[C@H](O)[C@@H](O)[C@@H]1O

Drug metabolism [7]: metabolite_not_detected
Drug metabolism [8]: metabolite_detected
SMILES: COc1c2c(cc3occ(-c4ccc(O)cc4)c(=O)c13)OCO2 [IRISOLONE]
